Assay results taken from article PMC10201049, “Rhein-attenuates LPS-induced acute lung injury via targeting NFATc1/Trem2 axis” (Inflammation Research, 2023).

Molecular target: T1, NFATc1 (Mus musculus, UniProt O88942)
T1 construct: endogenous protein in RAW264.7 cell lysate
T1 sequence (O88942 1-717): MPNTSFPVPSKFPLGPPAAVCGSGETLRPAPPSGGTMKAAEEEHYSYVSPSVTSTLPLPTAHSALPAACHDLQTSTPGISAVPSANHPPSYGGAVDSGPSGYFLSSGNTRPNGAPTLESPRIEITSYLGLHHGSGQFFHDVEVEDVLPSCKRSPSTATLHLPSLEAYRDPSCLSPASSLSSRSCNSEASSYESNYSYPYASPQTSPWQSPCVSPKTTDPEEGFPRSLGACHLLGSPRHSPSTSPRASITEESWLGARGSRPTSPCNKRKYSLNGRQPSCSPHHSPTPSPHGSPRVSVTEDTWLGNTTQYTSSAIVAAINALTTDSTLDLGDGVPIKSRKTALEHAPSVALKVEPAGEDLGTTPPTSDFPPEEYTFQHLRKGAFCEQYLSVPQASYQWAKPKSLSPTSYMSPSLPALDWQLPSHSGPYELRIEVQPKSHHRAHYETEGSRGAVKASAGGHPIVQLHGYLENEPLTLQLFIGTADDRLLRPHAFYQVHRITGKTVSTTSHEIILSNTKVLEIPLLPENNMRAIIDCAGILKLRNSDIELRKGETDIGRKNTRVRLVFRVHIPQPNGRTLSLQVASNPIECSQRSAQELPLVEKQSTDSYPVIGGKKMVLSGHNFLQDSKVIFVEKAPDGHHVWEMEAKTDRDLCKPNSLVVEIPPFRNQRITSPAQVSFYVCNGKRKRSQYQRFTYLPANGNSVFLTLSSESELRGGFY
Test: biotin pull-down on streptavidin beads, western blot
Type: biochemical
Conditions: labelled compound (biotin conjugate of rhein, linker only drawn); biotin alone as control; RAW264.7 lysate, 4 °C bead loading

O=C1N[C@H]2[C@H](CS[C@H]2CCCCC(=O)Oc2cccc3c2C(=O)c2c(O)cc(C(=O)O)cc2C3=O)N1 [Bio-Rhein, Biotinylated-Rhein]
biotin pull-down on streptavidin beads, western blot: The results of western immunoblotting indicated the direct interaction between rhein and NFATc1
